From patent US8354498B2, “CD4 mimic peptides and their uses” (Commissariat a l'Energie Atomique, priority 2006, dated 2013)
pIC50: −log10 of the molar value. Where two headings read alike, the source gives them in different places.

Experiments:
[1] = tested on: gp120 isolates SF2, SF162, Bal, IIIB, YU2; assay: Direct binding by fluorescence anisotropy, comparison over all isolates; design: species or system HIV-1; settings: depending on gp120 isolates
Description: Direct binding assays of fluorescent peptides were performed in triplicates by adding 10 μL of 0.5 nM Alexa-labeled mini-proteins and 10 μL of serial dilutions (two-thirds dilutions in 16 wells, starting at 200 nM) of gp120 SF2, SF162, BaL, IIIB and YU2. Collected data were fitted to the following equation using a non-linear regression program (Prism, GraphPad software Inc.):
The biphenylalanine in position 23 led to a 3 fold gain, consistent with the previously observed difference between CD4M33 and its [Phe^23]M33 mutant (Huang et al., Structure, 2005, 13, 755-768).

[2] = molecular target: T1, gp120SF162 binding to CCR5+-CHO cells (Human immunodeficiency virus type 1 group M subtype B, UniProt P19550); assay: FACS analysis of gp120 binding to CCR5+-CHO cells in presence of CD4 mimics; assay type: cell-based, HIV-1; settings: gp120SF162 pre-incubated with mini-protein
T1 construct: R5-tropic SF162 and Dual-tropic SF2 recombinant gp120s were produced in mammalian cells (CHO); made in house; host or cells: gp120: CHO; CCR5: transfected CHO-K1 cells
Text: FIG. 7 illustrates the FACS analysis of the binding of recombinant envelope gp120 to CCR5^+-CHO cells in absence or in presence of various CD4-mimics, in comparison with soluble CD4.
FIG. 13 illustrates the FACS analysis of the binding of recombinant envelope gp120 to CCR5^+-CHO cells in absence or in presence of various CD4-mimics in comparison with soluble CD4.
FIG. 19 illustrates the FACS analysis of the binding of gp120SF162 to CCR5^+ CHO cells in absence or in presence of CD4M48 monomer or hetero-bivalent CD4M48−heparin. The ability of gp120 in complex with CD4M48 alone, CD4M48 covalently bound to heparin (noted M48−heparin), CD4M48 in presence of free LMW heparin (1:1) (noted M48+heparin) to bind to cellular co-receptor CCR5 was investigated.
Adherent CHO-K1 cells expressing CCR5 (Samson et al., Biochemistry, 1996, 35, 3362-3367; Blanpain et al., Blood, 2000, 96, 1638-1645) were used to analyze gp120SF162 conformational change in complex with different mini-proteins, by FACS (BECKTON DICKINSON). Briefly, 0.03 μg of gp120SF162 were pre-incubated overnight at 4° C. in absence or in presence of 10 nM CD4 or 10 nM mini-proteins and further added to 2×10^5 cells in HAM F12 supplemented with 10% SVF, 1% penicillin/streptomycin. […] After final wash, cells were analyzed for envelope binding by FACS.

[3] = tested on: gp120 (SF162, YU2, SF2, LAI, HXB2) binding to CD4i antibody 48d; assay: SPR analysis of binding of gp120 complexes to immobilized CD4i Ab 48d; design: species or system HIV-1; settings: 50 nM gp120 premixed with 3 eq.
Description: 120 μL of 50 nM gp120 preincubated with 3 eq. […] (A) gp120SF162, (B) gp120LAI. (C) gp120YU2.
The different gp120 (SF162, YU2, LAI, HXB2, SF2) were premixed at a final concentration of 50 nM with 3 eq. CD4M48, 3 eq. CD4M48 in presence of 3 eq. LMW heparin or 3 eq. covalent CD4M48−heparin for 60 min before injection at 20 μL/min. All sensorgrams were corrected by substracting the signal from reference flow cell.

gp120 = tested on: gp120
Description: Fluorescence anisotropy was determined after 40 min equilibration time at room temperature, using 485 nm excitation and 530 nm emission filters and an additional 505 nm dichroic filter. All experiments were performed in duplicate.
Fluorescence anisotropy measurements were based on the assessment of the rotational motions of species. Whereas the CD4-mimic tumbles very fast in solution randomizing excited molecules, once it binds to gp120 envelopes, the excited mini-protein stays aligned during the process of emission and as a result, emitted light is polarized.

HIV-1 BaL(R5) = assay: Acute infection assay in PM1 cells; assay type: cell-based; settings: day 5, read-out: Antiviral activity IC50
Description: (§1) For the acute infection assay in PM1 cell line (Lusso et al., J. virol., 1995, 69, 3712-3720), an immortalized CD4^+CCR5^+CXCR4^+ T-cell clone susceptible of a wide variety of HIV-1 strains, the cells were seeded at 2.5×10^4 cells/well into flat-bottom 96-well plates in 200 μL of complete RPMI medium. Cells were then exposed to the viral stocks (˜50 TCID50/well) pre-treated or not with serial dilutions of inhibitors for 30 min. After overnight incubation at 37° C., the cells were washed twice and recultured in complete RPMI medium supplemented with the appropriate inhibitors. After 3, 5 or 7 days, the culture supernatant was removed […] p24 antigen testing and replaced with fresh medium containing the appropriate inhibitors. The extracellular p24 concentrations were measured by capture ELISA, using a sandwich of specific antibodies (AALTO BIO REAGENTS).
(§2) The experimental procedures are as described in example 1.

HIV-1 714(R5) = assay: Acute infection assay in PM1 cells; assay type: cell-based; settings: day 5, read-out: Antiviral activity IC50
Description: as §1, §2

HIV-1 6393(R5) = assay: Acute infection assay in PM1 cells; assay type: cell-based; settings: day 5, read-out: Antiviral activity IC50
Description: as §1, §2

HIV-1 NL4.3(X4) = assay type: cell-based
Description: The acute infection assays in primary cells were performed as described by Schols and coworkers (Balzarini et al., J. Biol. Chem., 2005, 280, 41005-41014). Briefly, PBMC from healthy donors were isolated by density gradient centrifugation and stimulated by phytohemagglutinin (PHA; SIGMA) in RPMI 1640 medium supplemented with 10% foetal calf serum (FCS; BIOCHROM). PBMC were infected by exposing cells (0.5×10^6/well; 48-well plate) to the viral stocks added at a final dose of 250 pg of p24/mL in the presence or the absence of the inhibitors. Cell supernatant was collected at day 12, and HIV-1 core Ag in the culture supernatant was analysed by a p24 Ag enzyme-linked immunosorbent assay kit (PERKIN ELMER).
as §2

HIV-1 NL4.3 (X4) = assay type: cell-based
Description: The antiviral activity of the molecules in MT-4 cells was determined using a tetrazolium-based colorimetric assay (Hase et al., Biochem. Pharmacol., 2005, 70, 752-761). Briefly, five-fold dilutions of the test compounds in 100 μL of medium were added to duplicate wells of 96-well flat bottom plates (IWAKI). Then 6×10^4 MT-4 cells were added in 50 μL of medium, and finally 50 μL of diluted HIV-1 stocks was added to each well. Cytopathic effect induced by the virus was monitored by daily microscopic evaluation of the virus-infected cell cultures. At day 4-5 after infection, the cell viability was assessed via the in situ reduction of the tetrazolium compound MTS, using the CellTiter 96® AQueous one solution cell proliferation assay (PROMEGA). The absorbance was then measured at 490 nm with a 96-well plate reader and compared with four cell control replicates (cells without virus and drugs) and four virus control wells (virus-infected cells without drugs). The IC50 was calculated for each compound from the dose-response curve.
as §2

gp120SF162 = gp120SF162 (Human immunodeficiency virus type 1 group M subtype B, UniProt P19550); settings: injected at 125 nM; curves normalized to CD4M48
Description: 100 μL of monomer, dimers and tetramers were passed over the surface at 20 μL/min after which dissociation of bound inhibitors was monitored for 15 min.
All experiments were conducted at 25° C. with 20 μL/min flow rate in HBS (50 mM HEPES-buffered saline, 3 mM EDTA, 0.05% Biacore surfactant P20, pH 7.4) with a BIACORE 3000 instrument (BIACORE AB).
For binding of multimers to gp120, gp120SF162 was immobilized on a CM5 sensor chip at 9000 RU by the amine coupling kit provided by the manufacturer.

[4] = MT-4 cells, NL4.3 (X4), day 5, read-out: Antiviral activity IC50

CD4M47-F1: CD4M47 labeled with Alexa-488 probe at Lys11
Improvement of affinity (Kd) compared to CD4M33 [1]: 5.2- to 12.3 fold

CD4M48-F1: CD4M48 labeled with Alexa-488 probe at Lys11 (XNLHFCQLRCKSLGLLGRCAXTFCACV; not fully specified; D-residues)
Improvement of affinity (Kd) compared to CD4M33 [1]: 1.1 to 6.1 fold

CD4M48-hep: hetero-bivalent inhibitor: CD4M48-hydrazino (Lys-11) covalently ligated to heparin mono-aldehyde (XNLHFCQLRCKSLGLLGRCAXTFCACV; not fully specified; D-residues)
Binding of gp120 to CCR5+-CHO cells induced by the mimic (conformational change of gp120) [2]: prevents the binding of the complex to CCR5+ cells
Recognition of the gp120 complex by CD4i Ab 48d [3]: inhibit completely the recognition of the complex by CD4i-Ab 48d
Inhibition of CD4M33-F1 binding to gp120 (competitive polarization) (gp120): nanomolar range

CD4M48T50: CD4M48 tetramer on polylysine construct with 50 Å PEGylated linkers
pIC50 (HIV-1 BaL(R5)): 6.51
pIC50 (HIV-1 714(R5)): 6.17
pIC50 (HIV-1 6393(R5)): 6.46
pIC50 (HIV-1 NL4.3(X4); PBMC, day 12, read-out: Antiviral activity IC50): > 7.59
pIC50 (HIV-1 NL4.3 (X4); [4]): 7.51

CD4M48T100: CD4M48 tetramer on polylysine construct with 100 Å PEGylated linkers (XNLHFCQLRCKSLGLLGRCAXTFCACV; not fully specified; D-residues)
pIC50 (HIV-1 BaL(R5)): 7.35
pIC50 (HIV-1 714(R5)): 6.44
pIC50 (HIV-1 6393(R5)): 7.26
pIC50 (HIV-1 NL4.3 (X4); [4]): 7.66
Dissociation from immobilized gp120 (off-rate) compared to monomer CD4M48 (gp120SF162): slowed-down dissociation phase

Enfuvirtide
pIC50 (HIV-1 NL4.3(X4)): 7.89
pIC50 (HIV-1 NL4.3 (X4); NL4.3(X4)): 7.96
